These results are taken from patent US20110086759A1, “CHEMICAL COMPOUNDS” (SYNGENTA CROP PROTECTION, INC., priority 2007, published 2011).

Structures are written as SMILES.

Holding throughout (type): in vivo
The subject of assay [1] is Solanum nigrum (SOLNI). The assay can be described thus: Pre-emergence biological efficacy, glasshouse pot test. Conditions: 312 h, pre-emergence, 1,000 g/ha, evaluated after 13 days (100=total damage; 0=no damage), read-out: Percentage damage SOLNI. The procedure, abridged: (§1)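 Glasshouse pot test: spray on soil one day after sowing, 1000 or 250 g/ha. Conditions 24/16 °C day/night, 14 h light, 65% humidity. Plant damage scored 0–100 at 13 days.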

The subject of assay [2] is Setaria faberi (SETFA). The description is as above. Conditions: 312 h, pre-emergence, 1,000 g/ha, evaluated after 13 days (100=total damage; 0=no damage), read-out: Percentage damage SETFA. The procedure, abridged: as §1
The test system of assay [3] is Echinochloa crus-galli (ECHCG). Described as above. Conditions: 312 h, pre-emergence, 1,000 g/ha, evaluated after 13 days (100=total damage; 0=no damage), read-out: Percentage damage ECHCG. In a few lines:
as §1

For assay [4], the system named is Alopecurus myosuroides (ALOMY). The description is as above. Conditions: 312 h, pre-emergence, 1,000 g/ha, evaluated after 13 days (100=total damage; 0=no damage), read-out: Percentage damage ALOMY. In a few lines:
as §1

In assay [5] the test system is Amaranthus retoflexus (AMARE). The description is as above. The conditions noted are these: Amaranthus retroflexus, 312 h; pre-emergence, 1,000 g/ha, evaluated after 13 days (100=total damage; 0=no damage); read-out: Percentage damage AMARE. In a few lines: as §1
Assay [6] concerns Ipomea hederaceae (IPOHE). The description is as above. The conditions noted are these: Ipomoea hederacea, 312 h; pre-emergence, 1,000 g/ha, evaluated after 13 days (100=total damage; 0=no damage); read-out: Percentage damage IPOHE. In a few lines:
as §1

The subject of assay [7] is Solanum nigrum (SOLNI). Put plainly: Post-emergence biological efficacy, glasshouse pot test. The conditions noted are these: 312 h, post-emergence, 1,000 g/ha, evaluated after 13 days (100=total damage; 0=no damage), read-out: Percentage damage caused to weed species, SOLNI. In a few lines: (§2)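 Pot-grown weeds were sprayed 8 days after sowing with test compound in acetone/water (50:50) with 0.5% Tween 20 at 1000 or 250 g/ha. Glasshouse at 24/16° C day/night, 14 h light, 65% humidity. Damage scored 0-100 (100 = total damage) after 13 days.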

Assay [8] has as its system Setaria faberi (SETFA). Described as above. Conditions: 312 h, post-emergence, 1,000 g/ha, evaluated after 13 days (100=total damage; 0=no damage), read-out: Percentage damage caused to weed species, SETFA. In a few lines:
as §2

Assay [9] has as its system Echinochloa crus-galli (ECHCG). The assay is described as above. The conditions noted are these: 312 h, post-emergence, 1,000 g/ha, evaluated after 13 days (100=total damage; 0=no damage), read-out: Percentage damage caused to weed species, ECHCG. The procedure, abridged: as §2
The test system of assay [10] is Alopecurus myosuroides (ALOMY). The description is as above. Conditions: 312 h, post-emergence, 1,000 g/ha, evaluated after 13 days (100=total damage; 0=no damage), read-out: Percentage damage caused to weed species, ALOMY. The procedure, abridged: as §2
Assay [11] deals with Amaranthus retoflexus (AMARE). The description is as above. Conditions: Amaranthus retroflexus, 312 h; post-emergence, 1,000 g/ha, evaluated after 13 days (100=total damage; 0=no damage); read-out: Percentage damage caused to weed species, AMARE. In a few lines:
as §2

Assay [12] concerns Ipomea hederaceae (IPOHE). Described as above. The conditions noted are these: Ipomoea hederacea, 312 h; post-emergence, 1,000 g/ha, evaluated after 13 days (100=total damage; 0=no damage); read-out: Percentage damage caused to weed species, IPOHE. The procedure, abridged:
as §2

Regarding `COC(=O)c1nc(C2CC2)nc(NCc2c(F)cccc2F)c1Cl` [Compound 4-99, 5-Chloro-2-cyclopropyl-4-(2,6-difluorophenylmeth-ylamino)-6-methoxycarbonyl-pyrimidine], the pest or weed control at 1000 g/ha came out at 60% with Solanum nigrum (SOLNI) [1]; 50% with Setaria faberi (SETFA) [2]; 50% in assay [3]; 30% in assay [4]; 60% in assay [5]; 60% in assay [6]. The pest or weed control at 1000 g/ha was 100% with Solanum nigrum (SOLNI) [7]; 100% with Setaria faberi (SETFA) [8]; 100% in [9]; 50% in assay [10]; 100% in assay [11]; 100% in assay [12].

For `COC(=O)c1nc(C2CC2)nc(NCc2cc(F)cc(F)c2)c1Cl` [Compound 4-100, 5-Chloro-2-cyclopropyl-4-(3,5-difluorophenylmeth-ylamino)-6-methoxy-carbonylpyrimidine], the pest or weed control at 1000 g/ha in the assay with Solanum nigrum (SOLNI) [1] turned out to be 60%; with Setaria faberi (SETFA) [2], 20%; in [3], 40%; in [4], 20%; in assay [5] it was 70%; in assay [6], 50%. Further, the pest or weed control at 1000 g/ha in the assay with Solanum nigrum (SOLNI) [7] was 100%; with Setaria faberi (SETFA) [8] it was 100%; in assay [9] it was 70%; in [10] it was 30%; in assay [11], 100%; in [12], 100%.

`COC(=O)c1nc(C2CC2)nc(NCc2ccc(Cl)cc2F)c1Cl` [Compound 4-101, 5-Chloro-4-(4-chloro-2-fluoro-phenylmethyl-amino)-2-cyclopropyl-6-methoxycarbonyl-pyrimidine]: the pest or weed control at 1000 g/ha was 30% in the assay with Solanum nigrum (SOLNI) [1]; 10% in the assay with Setaria faberi (SETFA) [2]; 30% in [3]; 10% in assay [4]; 70% in assay [5]; 70% in [6]. The pest or weed control at 1000 g/ha came out at 100% with Solanum nigrum (SOLNI) [7]; 90% in the assay on Setaria faberi (SETFA) [8]; 50% in [9]; 30% in assay [10]; 100% in [11]; 100% in assay [12].

As for `COC(=O)c1nc(C2CC2)nc(NCc2ccc(Cl)cc2Cl)c1Cl` [Compound 4-103, 5-Chloro-2-cyclopropyl-4-(2,4-dichlorophenyl-methylamino)-6-methoxycarbonyl-pyrimidine], the pest or weed control at 1000 g/ha was 10% in the assay with Solanum nigrum (SOLNI) [1]; 0% with Setaria faberi (SETFA) [2]; 0% in assay [3]; 10% in assay [4]; 40% in assay [5]; 30% in [6]. The pest or weed control at 1000 g/ha with Solanum nigrum (SOLNI) [7] was found to be 80%; with Setaria faberi (SETFA) [8] it was 70%; in assay [9], 60%; in assay [10], 20%; in assay [11] it was 100%; in assay [12], 90%.

On to `COC(=O)c1nc(C2CC2)nc(NCc2c(Cl)cccc2Cl)c1Cl` [Compound 4-104, 5-Chloro-2-cyclopropyl-4-(2,6-dichlorophenyl-methylamino)-6-methoxycarbonyl-pyrimidine], for which the pest or weed control at 1000 g/ha worked out at 30% with Solanum nigrum (SOLNI) [1]; 0% in the assay on Setaria faberi (SETFA) [2]; 20% in assay [3]; 10% in assay [4]; 40% in assay [5]; 20% in assay [6]. In addition, the pest or weed control at 1000 g/ha in the assay on Solanum nigrum (SOLNI) [7] is 90%; in the assay with Setaria faberi (SETFA) [8] it was 90%; in assay [9], 90%; in assay [10], 20%; in assay [11], 100%; in [12] it was 100%.
